Laboratory results published in patent publication US20070059272A1 (priority 2005, published 2007).

Tests used:
[1] = system: PA-I expression in P. aeruginosa; format: cell-based, Pseudomonas aeruginosa
[2] = system: PA-I protein expression in PAO1; format: cell-based, Pseudomonas aeruginosa
[3] = system: PA-I promoter activity in reporter strain PA27853/PLL-EGFP
MDCK cells = format: cell-based
PA27853 = assay: Biofilm formation assay, PA27853; format: cell-based, Pseudomonas aeruginosa
[4] = system: PCN production in PAO1 mutant strains; format: cell-based, Pseudomonas aeruginosa
lecA (PA-I) mRNA in PAO1 = assay: Northern blot of PA-I (lecA) mRNA in PAO1; format: cell-based, Pseudomonas aeruginosa; settings: for PA-I mRNA by Northern blot: PAO1, 200 ng/ml cytokine in cell culture media, 4 hours
[5] = system: pyocyanin (PCN) production in P. aeruginosa PAO1; format: cell-based, Pseudomonas aeruginosa
P. aeruginosa = format: cell-based, Pseudomonas aeruginosa
[6] = system: membrane protein fractions of P. aeruginosa; assay: Morphine binding to P. aeruginosa membrane protein fractions; parameters: species or system Pseudomonas aeruginosa
[7] = system: PA-I expression in Pseudomonas strain PA27853; assay: Quantitative RT-PCR of PA-I mRNA in PA27853 exposed to morphine; format: cell-based, Pseudomonas aeruginosa
[8] = in vivo, iv; cited from earlier work
P. aeruginosa PA27853 = assay: Mice with slow release morphine pellets drinking PA27853-spiked formula; format: in vivo; settings: daily oral 1×10^8 cfu/ml PA27853
[9] = system: PA-I expression in P. aeruginosa; assay: PA-I expression in P. aeruginosa exposed to media containing candidate host agents; format: cell-based, Pseudomonas aeruginosa; settings: P. aeruginosa in media containing adenosine, TNFα, IL-2, IL-6, IL-8 or IFNγ
Excerpt: FIG. 10. Exposure of P. aeruginosa to IFNγ induces PA-I expression and the expression of rhlI. For controls (lane 1, 2) bacteria are suspended in media I (Tryptic soy broth) and media II (DMEM +10% FBS ). Lane 3, 4 are MRNA levels from bacteria exposed to IFNγ and TNFα in DMEM.
In addition, strains were exposed to apical media from Caco-2 cells basolaterally exposed to single and combinations of the various epithelial-derived cytokines. […] Media from Caco-2 cells exposed to various combinations of these cytokines had no effect on PA-I expression. […] Using both ELISA, immunofluorescence microscopy, and flow cytometry, the binding characteristics of IFNγ were determined for both whole bacteria and membrane fractions of P. aeruginosa. […] These effects were also observed with strain PAO1. […] It has been difficult to immunoprecipitate a significant quantity of this protein from PA27853, but it has been determined that this protein can also be immunoprecipitated from E. coli (FIG. 12C). Next, IFN-γ binding specificity, to whole bacterial cells, was determined, using reiterative binding studies in the presence of various gram negatie bacterial strains, including P. aeruginosa. […]

C4-HSL synthesis in PAO1 = assay: C4-HSL in PAO1 supernatant by luminescence reporter strain pSB536; format: cell-based, Pseudomonas aeruginosa; settings: PAO1, 100 ng/ml IFN-γ, bacterial supernatants
OprF = molecular target: T1, OprF (Pseudomonas aeruginosa, UniProt P13794); assay: ELISA binding of IFN-γ to purified OprF; settings: dose-dependent
T1 sequence (P13794 25-350): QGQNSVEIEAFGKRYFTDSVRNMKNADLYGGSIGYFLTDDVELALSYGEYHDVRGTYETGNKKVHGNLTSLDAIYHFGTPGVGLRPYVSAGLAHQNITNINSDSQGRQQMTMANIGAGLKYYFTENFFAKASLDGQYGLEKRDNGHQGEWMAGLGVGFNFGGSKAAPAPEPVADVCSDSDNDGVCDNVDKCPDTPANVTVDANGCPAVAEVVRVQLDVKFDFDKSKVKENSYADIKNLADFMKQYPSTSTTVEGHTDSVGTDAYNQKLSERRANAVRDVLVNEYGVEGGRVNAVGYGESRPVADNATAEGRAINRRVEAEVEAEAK

[10] = system: whole bacterial cells of PA27853; assay: IFN-γ binding to whole bacterial cells of PA27853; parameters: species or system Pseudomonas aeruginosa
Procedure: (§1) In addition, strains were exposed to apical media from Caco-2 cells basolaterally exposed to single and combinations of the various epithelial-derived cytokines. […] Media from Caco-2 cells exposed to various combinations of these cytokines had no effect on PA-I expression. […] Using both ELISA, immunofluorescence microscopy, and flow cytometry, the binding characteristics of IFNγ were determined for both whole bacteria and membrane fractions of P. aeruginosa. […] These effects were also observed with strain PAO1. […] It has been difficult to immunoprecipitate a significant quantity of this protein from PA27853, but it has been determined that this protein can also be immunoprecipitated from E. coli (FIG. 12C). Next, IFN-γ binding specificity, to whole bacterial cells, was determined, using reiterative binding studies in the presence of various gram negatie bacterial strains, including P. aeruginosa. […] Finally, in order to determine if PA-I was functionally expressed in PA27853 in the presence IFN-γ, PA27853 was inoculated onto Caco-2 cell monolayers in the presence of IFN-γ and the effect on barrier dysregulating dynamics of PA27853 against this cell line were assessed to determine if IFN-γ shifted the dynamics. […]

[11] = system: rhlI transcription in PAO1; assay: Northern blot of rhlI gene expression in PAO1; format: cell-based, Pseudomonas aeruginosa
[12] = system: PA-I protein expression in P. aeruginosa mutant strains; assay: PA-I expression in PAO1 mutant strains exposed to IFN-γ; format: cell-based, Pseudomonas aeruginosa
[13] = system: whole cells of P. aeruginosa (strain PAO1); assay: IFN-γ binding to whole cells of P. aeruginosa PAO1 (ELISA, immunofluorescence); parameters: species or system Pseudomonas aeruginosa
Procedure: IFN-γ direct binding to a protein on the surface of P. aeruginosa, in the course of virulence activation, was also investigated. ELISA binding assays were performed by first coating microtiter plates with P. aeruginosa (strain PAO1), then adding recombinant human IFN-γ (rH IFN-γ), followed by biotin-labeled anti-IFN-γ antibody. IFN-γ avidly bound to whole fixed cells of P. aeruginosa in a dose-dependent manner (FIG. 25A). The ELISA data were confirmed by the results of immunofluorescent imaging of bacterial cells exposed to IFN-γ followed by biotin-labeled anti-IFN-γ antibody and Alexa 594-labeled streptavidin. The vast majority of bacterial cells (73%±3.2% vs. 8.5%±2.5%) bound IFN-γ (FIG. 25B, FIG. 27). The binding capacity of the IFN-γ to the P. aeruginosa was affected by bacterial growth phase (FIG. 28A). In order to localize the binding site of IFN-γ to P. aeruginosa (PAO1), equal protein concentrations of membrane and cytosol fractions of P. aeruginosa were prepared and coated onto ELISA microtiter plates. […] To determine if the observed membrane binding by IFN-γ was protein dependent, membrane fractions were treated with proteinase K for 3 hours and IFN-γ binding assessed.

[14] = system: membrane fractions of P. aeruginosa (PAO1); assay: ELISA binding to membrane fractions and solubilized membrane proteins of P. aeruginosa PAO1; parameters: species or system Pseudomonas aeruginosa
Caco-2 cells = assay: TEER of Caco-2 monolayers inoculated with PA27853 with and without IFN-γ; format: cell-based, human
Procedure: as §1

## C=CCN1C[C@H](C)N([C@H](c2ccc(C(=O)N(CC)CC)cc2)c2cccc(O)c2)C[C@H]1C [BW373U86]
[1]
  response to express PA-I: robust response
[2]
  PA-I protein: same degree as C4-HSL
[3]
  PA-I expression as judged by fluorescence of the GFP reporter strain: greatest effect on PA-I expression
MDCK cells
  TEER of MDCK cells following apical exposure to PA27853 plus opioid: more profound decrease in the TEER
PA27853
  biofilm production: especially increased

## CCCC(=O)N[C@H]1CCOC1=O [C4-HSL, C4-homoserine lactone]
[4]
  PCN production in rhlR mutant strain: did not restore PCN production
  PCN production in seven additional mvfR mutants: none of these mutants produced PCN
  PCN production in ΔGacA and ΔMvfR: unable to restore PCN production
  PCN production in ΔGacA/gacA: decreased, albeit minimally
  PCN production in ΔMvfR/mvfR: further increased
  PCN response of MvfR truncation mutant 121-332: did not respond
  PCN response of MvfR truncation mutants 1-292, 1-291 and 1-283: did not respond
  PCN response of MvfR truncation mutants 1-299 and 1-293: enhanced PCN production
  dynamics of PCN production in ΔGacA/gacA: no effect on the dynamics of PCN production
  dynamics of PCN production in ΔMvfR/mvfR: shift in PCN production at lower cell densities
[1]
  PA-I expression, in vitro studies: induced PA-I expression
[2]
  PA-I protein expression: responds to varying doses
lecA (PA-I) mRNA in PAO1
  PA-I mRNA by Northern blot: Induction of PA-I mRNA was observed
[5]
  onset of PCN production versus cell density: shift in the production of PCN at lower cell densities
P. aeruginosa
  bacterial growth in TSB media: Neither compound had an effect

## CN1CC[C@]23c4c5ccc(O)c4O[C@H]2[C@@H](O)C=C[C@H]3[C@H]1C5 [morphine]
[6]
  binding to membrane protein fractions: binds to membrane protein fractions
[1]
  response to express PA-I: robust response
[7]; PA27853, physiologic concentrations of morphine (13 μM)
  PA-I expression: four-fold increase
[7]; PA27853 exposed to morphine (13 μM), quantitative RT-PCR
  increase in PA-I mRNA: 4 fold
[8]
  concentration at tissue sites such as the intestinal mucosa: ≤ 100 µM
P. aeruginosa PA27853
  mice that developed severe sepsis: 4/4
  mortality: significant mortality

## IFN-γ: human recombinant Interferon gamma
[4]
  PCN production induced by IFN-γ in rhlI and rhlR mutant strains: abolished
[9]
  PA-I expression, candidate agents alone: induced a direct effect on PA-I expression
C4-HSL synthesis in PAO1
  C4-HSL synthesis: increased
[1]
  PA-I expression, in vitro studies: induced PA-I expression
  response to express PA-I: robust response
OprF
  binding to purified OprF: directly binds
[2]
  IFN-γ concentration with the greatest increase in PA-I protein expression: 100 ng/mL
  PA-I protein: increased
lecA (PA-I) mRNA in PAO1
  PA-I mRNA by Northern blot: Induction of PA-I mRNA was observed
lecA (PA-I) mRNA in PAO1; early stationary phase of growth
  PA-I mRNA: increased
[10]
  binding to whole bacterial cells: high binding affinity
[5]
  pyocyanin production: increased pyocyanin production
[11]
  rhlI transcription: induced
[12]
  PA-I expression induced by IFN-γ in rhlI and rhlR mutant strains: abolished
[12]; 100 ng/ml of IFN-γ
  PA-I protein expression in OprF mutant strains: failed to increase the expression of the PA-I protein
[12]; plasmid pUCP24/OprF
  PA-I protein expression in strain 31899 reconstituted with OprF: recovery of their responsiveness
[3]
  PA-I expression in reporter strain exposed to cytokines: significant increase in PA-I expression
[13]; PAO1, recombinant human IFN-γ
  binding to whole fixed cells by ELISA: avidly bound
[13]; immunofluorescent imaging, versus 8.5%±2.5% control
  bacterial cells that bound IFN-γ: 73%±3.2%
[14]; equal protein concentrations, ELISA
  binding to membrane versus cytosol fractions: preferentially bound to membrane fractions
[14]; proteinase K for 3 hours
  binding to membranes after proteinase K: decreased
[14]; versus wild-type PAO1, ELISA
  binding to solubilized membrane proteins of OprF knockout strains: reduced binding
Caco-2 cells; Caco-2, five hours of incubation
  barrier dysregulating effect of PA27853 (TEER): enhanced the barrier dysregulating effect
Caco-2 cells; Caco-2, no bacteria
  TEER, IFN-γ alone: Neither media nor IFN-γ alone altered TEER
